Source: patent US10179125B2, “Substituted pyridines as bromodomain inhibitors” (Zenith Epigenetics Ltd., priority 2014, dated 2019)
pIC50: −log10 of the molar value.

Columns and labels:
[1] = target: T1, Brd4 bromodomain 1 (BRD4(1)) (Homo sapiens, UniProt O60885); test: Inhibition of tetra-acetylated histone H4 binding to BET bromodomain (HTRF/FRET); details: His-tagged bromodomain 200 nM, biotinylated tetra-acetylated histone H4 peptide, 2 h room temperature
T1 construct: made in house; host or cells: E. coli BL21(DE3)
Procedure, shortened: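 His-tagged BRD4(1) (200 nM, E. coli-expressed) incubated with biotinylated tetra-acetylated histone H4 peptide (25-50 nM) plus Eu-cryptate streptavidin and XL665 anti-His, with compound (0.2% DMSO), 2 h at room temperature in HEPES pH 7.4 buffer. HTRF 665/620 nm ratio decrease gives IC50.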

cMYC = test: Inhibition of cMYC expression in MV4-11 cells (real-time PCR); type: cell-based, Human; details: Homo sapiens, 3 h, cMYC mRNA, read-out: c-myc activity
Procedure, shortened: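 MV4-11 cells (2.5×10^4/well) treated 3 h at 37° C with compound in IMDM/10% FBS, 0.1% DMSO vehicle, in triplicate. cMYC mRNA quantified by one-step TaqMan RT-qPCR, Ct normalised to cyclophilin; fold expression relative to DMSO control.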

Human AML MV-4-11 cells = test: Inhibition of cell proliferation in MV4-11 cells (CellTiter Aqueous One); type: cell-based; details: Homo sapiens, 72 h
Procedure, shortened: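 MV4-11 cells (5×10^4/well) in IMDM + 10% FBS were treated with graded compound or 0.1% DMSO for 72 h at 37 °C, 5% CO2, in triplicate. CellTiter Aqueous One was added for 3–4 h and absorbance read at 490 nm. Background-corrected signal was expressed relative to DMSO and used to calculate IC50.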

hIL-6 = test: Inhibition of hIL-6 mRNA transcription in LPS-stimulated U937 cells; type: cell-based, Human; details: Homo sapiens, U-937, PMA-differentiated U937 cells, 1 h pretreatment, LPS 3 h, read-out: IL-6 activity
Procedure, shortened: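 U937 cells differentiated 3 days with 60 ng/mL PMA, pretreated 1 h with compound (0.1% DMSO), then stimulated with 1 ug/mL E. coli LPS for 3 h at 37 °C. IL-6 mRNA measured by one-step TaqMan qRT-PCR, normalized to cyclophilin; fold expression relative to control, triplicate wells.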

hIL-17 = test: Inhibition of hIL-17 mRNA transcription in OKT3-stimulated peripheral blood mononuclear cells; type: cell-based; details: human PBMC, OKT3 antibody 6 h, read-out: IL-17 activity
Protocol: Human peripheral blood mononuclear cells were plated (2.0×10^5 cells per well) in a 96-well plate in 45 μL OpTimizer T Cell expansion media (Life Technologies) containing 20 ng/ml IL-2 and penicillin/streptomycin. The cells were treated with increasing concentrations of the test compound or DMSO (0.1%), and incubated at 37° C., 5% CO2 for 1 h before addition of 10× stock OKT3 antibody at 10 ug/ml in media. Triplicate wells were used for each concentration, Cells were incubated at 37° C., 5% CO2 for 6 h before the cells were harvested. At time of harvest, cells were pelleted by centrifugation at 800 rpm for 5 min. Cells were harvested using the mRNA Catcher PLUS kit according to manufacturer's instructions. The eluted mRNA was then used in a one-step quantitative real-time PCR reaction, using components of the RNA UltraSense™ One-Step Kit (Life Technologies) together with Applied Biosystems TaqMan® primer-probes for hIL-17 and Cyclophilin. Real-time PCR plates were run on a ViiA™ 7 real time PCR machine (Applied Biosystems), data was analyzed, normalizing the Ct values for hIL-17 to an internal control, prior to determining the fold induction of each unknown sample, relative to the control.

hApoA-I = test: Up-regulation of hApoA-1 mRNA transcription in Huh7 cells; type: cell-based; details: EC170, Huh7 cells, 48 h
Protocol: In this example, hApoA-I mRNA in tissue culture cells was quantitated to measure the transcriptional up-regulation of hApoA-I when treated with a compound of the present disclosure.
Huh7 cells (2.5×10^5 per well) were plated in a 96-well plate using 100 μL DMEM per well, (Gibco DMEM supplemented with penicillin/streptomycin and 10% FBS), 72 h before the addition of the compound. The cells are treated with increasing concentrations of the compound or […] (0.1%), and incubated at 37° C., 5% CO2 for 48 h. Spent media was removed from the Huh-7 cells and placed on ice for immediate use with the “LDH cytotoxicity assay Kit II” from Abcam. The cells remaining in the plate were rinsed with 100 μL PBS. Cells were harvested using the mRNA Catcher PLUS kit according to manufacturer's instructions. The eluted mRNA was then used in a one-step quantitative real-time PCR reaction, using components of the RNA UltraSense™ One-Step Kit (Life Technologies) together with Applied Biosystems TaqMan® primer-probes for hApoA-I and Cyclophilin. Real-time PCR plates were run on a ViiA™7 real time PCR machine (Applied Biosystems), data was analyzed, normalizing the Ct values for hApoA-1 to an internal control, prior to determining the fold induction of each unknown sample, relative to the control.

Row | pIC50 [1] | pIC50 (cMYC) | pIC50 (Human AML MV-4-11 cells) | pIC50 (hIL-6) | pIC50 (hIL-17) | SMILES | ApoA-1 activity (hApoA-I)
1 | ≥ 6.52 | 5.52 to 6.52 | 5.52 to 6.52 | ≥ 6.52 | 5.52 to 6.52 | COc1ncc(-c2c(C)noc2C)cc1NCc1ccsc1 [Example 9, 5-(3,5-dimethylisoxazol-4-yl)-2-methoxy-N-(thiophen-3-ylmethyl)pyridin-3-amine] | ++ (EC170 value between 0.3 and 3 μM were deemed to be very active (++))
2 | 5.52 to 6.52 | 4.52 to 5.52 | 4.52 to 5.52 | 4.52 to 5.52 |  | COc1ncc(-c2c(C)noc2C)cc1Nc1cccnc1 [Example 1, 5-(3,5-dimethylisoxazol-4-yl)-2-methoxy-N-(pyridin-3-yl)pyridin-3-amine] | ++ (EC170 value between 0.3 and 3 μM were deemed to be very active (++))
3 | ≥ 6.52 | ≥ 6.52 | 5.52 to 6.52 | ≥ 6.52 | 5.52 to 6.52 | COc1ncc(-c2c(C)noc2C)cc1Nc1c(C)noc1C [Example 43, N-(5-(3,5-dimethylisoxazol-4-yl)-2-methoxypyridin-3-yl)-3,5-dimethylisoxazol-4-amine] | 
4 | ≥ 6.52 | 5.52 to 6.52 | 5.52 to 6.52 | ≥ 6.52 | 5.52 to 6.52 | CNc1ncc(-c2c(C)noc2C)cc1NCc1ccccc1 [Example 45, N3-benzyl-5-(3,5-dimethylisoxazol-4-yl)-N2-methylpyridine-2,3-diamine] | 
5 | ≥ 6.52 | 5.52 to 6.52 | 4.52 to 5.52 | 5.52 to 6.52 | 5.52 to 6.52 | COc1ncc(-c2c(C)noc2C)cc1NCc1ccc(F)cc1 [Example 6, 5-(3,5-dimethylisoxazol-4-yl)-N-(4-fluorobenzyl)-2-methoxypyridin-3-amine] | 
6 | ≥ 6.52 | 5.52 to 6.52 | 5.52 to 6.52 | 5.52 to 6.52 | 5.52 to 6.52 | COc1ncc(-c2c(C)noc2C)cc1NCc1ccccc1 [Example 2, N-benzyl-5-(3,5-dimethylisoxazol-4-yl)-2-methoxypyridin-3-amine] | ++ (EC170 value between 0.3 and 3 μM were deemed to be very active (++))
7 | ≥ 6.52 |  | 4.52 to 5.52 | 4.52 to 5.52 | 5.52 to 6.52 | COc1ncc(-c2c(C)noc2C)cc1NCc1ccc(Cl)cc1 [Example 14, N-(4-chlorobenzyl)-5-(3,5-dimethylisoxazol-4-yl)-2-methoxypyridin-3-amine] | 
8 | ≥ 6.52 | 5.52 to 6.52 | 4.52 to 5.52 | 5.52 to 6.52 | 4.52 to 5.52 | COc1ncc(-c2c(C)noc2C)cc1OCc1ccccc1 [Example 10, 4-(5-(benzyloxy)-6-methoxypyridin-3-yl)-3,5-dimethylisoxazole] | 
9 | ≥ 6.52 | 5.52 to 6.52 | 4.52 to 5.52 | 5.52 to 6.52 | 5.52 to 6.52 | COc1ncc(-c2c(C)noc2C)cc1NCc1ccc(C#N)cc1 [Example 11, 4-(((5-(3,5-dimethylisoxazol-4-yl)-2-methoxypyridin-3-yl)amino)methyl)benzonitrile] | 
10 | ≥ 6.52 | 5.52 to 6.52 | 4.52 to 5.52 | 5.52 to 6.52 |  | CNc1ncc(-c2c(C)noc2C)cc1NCc1ccc(C#N)s1 [Example 54, 5-(((5-(3,5-dimethylisoxazol-4-yl)-2-(methylamino)pyridin-3-yl)amino)methyl)thiophene-2-carbonitrile] | 
11 | ≥ 6.52 | 5.52 to 6.52 | 4.52 to 5.52 | 5.52 to 6.52 |  | Cc1noc(C)c1-c1cnc(Oc2ccccc2)c(NCc2ccccn2)c1 [Example 51, 5-(3,5-dimethylisoxazol-4-yl)-2-phenoxy-N-(pyridin-2-ylmethyl)pyridin-3-amine] | 
